Patent US12077503B2, “Substituted cyclic amides and their use as herbicides” (FMC CORPORATION, priority 2015, dated 2024)

How the values were obtained:
Assay type in all cases: in vivo
[1] = tested on: velvetleaf (Abutilon theophrasti); assay: Test G Pre-Emergence Protocol; conditions: Abutilon theophrasti, pre-emergence, 312 h, evaluated after 13 days
Procedure, shortened: (§1)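 Herbicidal effect was rated 13 days post-application on a scale where 100 equals total damage. Spraying took place the day after sowing, using 15.625, 62.5 or 250 g/ha of compound in a 50:50 acetone/water solution with 0.5% Tween 20.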

[2] = tested on: redroot pigweed (Amaranthus retroflexus); assay: Test G Pre-Emergence Protocol; conditions: Amaranthus retroflexus, pre-emergence, 312 h, evaluated after 13 days
Procedure, shortened: as §1

[3] = tested on: barnyardgrass (Echinochloa crus-galli); assay: Test G Pre-Emergence Protocol; conditions: Echinochloa crus-galli, pre-emergence, 312 h, evaluated after 13 days
Procedure, shortened: as §1

corn (Zea mays) [4] = assay: Test G Pre-Emergence Protocol; conditions: Zea mays, pre-emergence, 312 h, evaluated after 13 days
Procedure, shortened: as §1

[5] = tested on: ivy-leaved morning glory (Ipomoea hederacea); assay: Test G Pre-Emergence Protocol; conditions: Ipomoea, pre-emergence, 312 h, evaluated after 13 days
Procedure, shortened: as §1

[6] = tested on: giant foxtail (Setaria faberi); assay: Test G Pre-Emergence Protocol; conditions: Setaria faberi, pre-emergence, 312 h, evaluated after 13 days
Procedure, shortened: as §1

[7] = tested on: velvetleaf (Abutilon theophrasti); assay: Test G Post-Emergence Protocol; conditions: Abutilon theophrasti, post-emergence, 312 h, read-out: Velvetleaf damage rating
Procedure, shortened: (§2)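 Seedlings grown 8 days in soil in a glasshouse (24/16 °C day/night, 14 h light, 65% humidity) were sprayed post-emergence with compound in acetone/water 50:50 plus 0.5% Tween 20 at 15.625, 62.5 or 250 g/ha. Damage was scored after 13 days on a 0–100 scale (100 = total damage).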

[8] = tested on: redroot pigweed (Amaranthus retroflexus); assay: Test G Post-Emergence Protocol; conditions: Amaranthus retroflexus, post-emergence, 312 h, read-out: Pigweed, Redroot damage rating
Procedure, shortened: as §2

[9] = tested on: barnyardgrass (Echinochloa crus-galli); assay: Test G Post-Emergence Protocol; conditions: Echinochloa crus-galli, post-emergence, 312 h, read-out: Barnyardgrass damage rating
Procedure, shortened: as §2

corn (Zea mays) [10] = assay: Test G Post-Emergence Protocol; conditions: Zea mays, post-emergence, 312 h, read-out: Corn damage rating
Procedure, shortened: as §2

[11] = tested on: ivy-leaved morning glory (Ipomoea hederacea); assay: Test G Post-Emergence Protocol; conditions: Ipomoea, post-emergence, 312 h, read-out: Morningglory, Ivy-leaved damage rating
Procedure, shortened: as §2

[12] = tested on: giant foxtail (Setaria faberi); assay: Test G Post-Emergence Protocol; conditions: Setaria faberi, post-emergence, 312 h, read-out: Foxtail, Giant damage rating
Procedure, shortened: as §2

[13] = 15.625 g ai/ha, evaluated after 13 days (100=total damage to plant; 0=no damage to plant)
[14] = 62.5 g ai/ha, evaluated after 13 days, 100=total damage to plant, 0=no damage to plant
[15] = 250 g ai/ha, evaluated after 13 days, 100=total damage to plant, 0=no damage to plant

CN1C[C@H](c2cccc(C(F)(F)F)c2)[C@@H](C(=O)Nc2cccc3c2S(=O)(=O)CC3)C1=O (racemic) [Compound 1738]
pest or weed control at 15.625 g/ha ([1]; 15.625 g ai/ha, read-out: Velvetleaf damage rating (100=total damage to plant; 0=no damage to plant)): 0% | pest or weed control at 62.5 g/ha ([1]; 62.5 g ai/ha, 100=total damage to plant, 0=no damage to plant, read-out: Velvetleaf damage rating): 0% | pest or weed control at 250 g/ha ([1]; 250 g ai/ha, read-out: Velvetleaf damage rating (100=total damage to plant; 0=no damage to plant)): 0% | pest or weed control at 15.625 g/ha ([2]; 15.625 g ai/ha, read-out: Pigweed, Redroot damage rating (100=total damage to plant; 0=no damage to plant)): 0% | pest or weed control at 62.5 g/ha ([2]; 62.5 g ai/ha, 100=total damage to plant, 0=no damage to plant, read-out: Pigweed, Redroot damage rating): 0% | pest or weed control at 250 g/ha ([2]; 250 g ai/ha, read-out: Pigweed, Redroot damage rating (100=total damage to plant; 0=no damage to plant)): 0% | pest or weed control at 15.625 g/ha ([3]; 15.625 g ai/ha, read-out: Barnyardgrass damage rating (100=total damage to plant; 0=no damage to plant)): 0% | pest or weed control at 62.5 g/ha ([3]; 62.5 g ai/ha, 100=total damage to plant, 0=no damage to plant, read-out: Barnyardgrass damage rating): 0% | pest or weed control at 250 g/ha ([3]; 250 g ai/ha, read-out: Barnyardgrass damage rating (100=total damage to plant; 0=no damage to plant)): 70% | plant injury at 15.625 g/ha (corn (Zea mays) [4]; 15.625 g ai/ha, read-out: Corn damage rating (100=total damage to plant; 0=no damage to plant)): 0% | plant injury at 62.5 g/ha (corn (Zea mays) [4]; 62.5 g ai/ha, 100=total damage to plant, 0=no damage to plant, read-out: Corn damage rating): 0% | plant injury at 250 g/ha (corn (Zea mays) [4]; 250 g ai/ha, read-out: Corn damage rating (100=total damage to plant; 0=no damage to plant)): 0% | pest or weed control at 15.625 g/ha ([5]; 15.625 g ai/ha, read-out: Morningglory, Ivy-leaved damage rating (100=total damage to plant; 0=no damage to plant)): 0% | pest or weed control at 62.5 g/ha ([5]; 62.5 g ai/ha, 100=total damage to plant, 0=no damage to plant, read-out: Morningglory, Ivy-leaved damage rating): 0% | pest or weed control at 250 g/ha ([5]; 250 g ai/ha, read-out: Morningglory, Ivy-leaved damage rating (100=total damage to plant; 0=no damage to plant)): 0% | pest or weed control at 15.625 g/ha ([6]; 15.625 g ai/ha, read-out: Foxtail, Giant damage rating (100=total damage to plant; 0=no damage to plant)): 0% | pest or weed control at 62.5 g/ha ([6]; 62.5 g ai/ha, 100=total damage to plant, 0=no damage to plant, read-out: Foxtail, Giant damage rating): 0% | pest or weed control at 250 g/ha ([6]; 250 g ai/ha, read-out: Foxtail, Giant damage rating (100=total damage to plant; 0=no damage to plant)): 70% | pest or weed control at 15.625 g/ha [7, 13]: 0% | pest or weed control at 62.5 g/ha [7, 14]: 10% | pest or weed control at 250 g/ha [7, 15]: 10% | pest or weed control at 15.625 g/ha [8, 13]: 20% | pest or weed control at 62.5 g/ha [8, 14]: 10% | pest or weed control at 250 g/ha [8, 15]: 10% | pest or weed control at 15.625 g/ha [9, 13]: 0% | pest or weed control at 62.5 g/ha [9, 14]: 40% | pest or weed control at 250 g/ha [9, 15]: 80% | plant injury at 15.625 g/ha (corn (Zea mays) [10]; [13]): 0% | plant injury at 62.5 g/ha (corn (Zea mays) [10]; [14]): 0% | plant injury at 250 g/ha (corn (Zea mays) [10]; [15]): 0% | pest or weed control at 15.625 g/ha [11, 13]: 0% | pest or weed control at 62.5 g/ha [11, 14]: 0% | pest or weed control at 250 g/ha [11, 15]: 0% | pest or weed control at 15.625 g/ha [12, 13]: 20% | pest or weed control at 62.5 g/ha [12, 14]: 40% | pest or weed control at 250 g/ha [12, 15]: 70%
